Data taken from PubChem BioAssay AID228 (DTP/NCI, 2004).
Where “and” joins values, the source holds several entries; their conditions need not be identical. Equal values may be shown once. Results filed as inconclusive are left out.

Tested on: BDF1 mice, Friend leukemia sc, tumor weight T/C
Experiment: NCI In Vivo Anticancer Drug Screen. Data for tumor model Friend Virus Leukemia (Solid) (subcutaneous) in B6D2F1 (BDF1) mice
Conditions: endpoint: mean tumor weight, higher = larger tumour
Procedure: The antitumor activity of compounds was measured in mice bearing transplantable tumors. Survival or tumor size were measured and the results are expressed as the measurement made in the treated group (T) divided by the measurement made in the vehicle treated control group (C). The tumor model used in this assay is Friend Virus Leukemia (Solid) (subcutaneous) in B6D2F1 (BDF1) mice

[1] = dose: 100.0 mg/kg/injection, schedule: Q01DX011 (ip), vehicle: carboxymethylcellulose (CMC)
[2] = dose: 37.5 mg/kg/injection, schedule: Q01DX011 (ip), vehicle: carboxymethylcellulose (CMC)
[3] = dose: 75.0 mg/kg/injection, schedule: Q01DX011 (ip), vehicle: carboxymethylcellulose (CMC)
[4] = dose: 89.0 mg/kg/injection, schedule: Q01DX011 (ip), vehicle: carboxymethylcellulose (CMC)
[5] = dose: 5.0 mg/kg/injection, schedule: Q01DX011 (ip), vehicle: carboxymethylcellulose (CMC)
[6] = dose: 125.0 mg/kg/injection, schedule: Q01DX011 (ip), vehicle: carboxymethylcellulose (CMC)

## COc1ccccc1NC(=O)CSC(N)=O
[1]
  T/C: 91 % of control
dose: 200.0 mg/kg/injection, schedule: Q01DX011 (ip), vehicle: carboxymethylcellulose (CMC)
  T/C: 104 % of control
dose: 400.0 mg/kg/injection, schedule: Q01DX011 (ip), vehicle: carboxymethylcellulose (CMC)
  T/C: 71 % of control

## Cc1nc2nc(N)nc(N)c2nc1C
dose: 13.12 mg/kg/injection, schedule: Q01DX011 (ip), vehicle: carboxymethylcellulose (CMC)
  T/C: 103 % of control
dose: 26.25 mg/kg/injection, schedule: Q01DX011 (ip), vehicle: carboxymethylcellulose (CMC)
  T/C: 89 % of control
dose: 52.5 mg/kg/injection, schedule: Q01DX011 (ip), vehicle: carboxymethylcellulose (CMC)
  T/C: 52 % of control
dose: 105.0 mg/kg/injection, schedule: Q01DX011 (ip), vehicle: carboxymethylcellulose (CMC)
  T/C: 61 % of control

## Cc1c2ccc3ccccc3c2c[n+]2ccccc12
dose: 3.0 mg/kg/injection, schedule: Q01DX011 (ip), vehicle: carboxymethylcellulose (CMC)
  T/C: 97 % of control
dose: 6.0 mg/kg/injection, schedule: Q01DX011 (ip), vehicle: carboxymethylcellulose (CMC)
  T/C: 105 % of control
dose: 24.0 mg/kg/injection, schedule: Q01DX011 (ip), vehicle: carboxymethylcellulose (CMC)
  T/C: 61 % of control and 37 % of control

## NNc1nncc2ccccc12
[2]
  T/C: 108 % of control
[3]
  T/C: 66 % of control

## C[C@]12CCC(=O)C=C1CC[C@@H]1[C@@H]2[C@@H](O)C[C@@]2(C)[C@H]1CC[C@]2(O)C(=O)COC(=O)c1ccc([N+](=O)[O-])cc1Cl
dose: 50.0 mg/kg/injection, schedule: Q01DX011 (sc), vehicle: steriod suspending solution
  T/C: 69 % of control
dose: 100.0 mg/kg/injection, schedule: Q01DX011 (sc), vehicle: steriod suspending solution
  T/C: 58 % of control
dose: 200.0 mg/kg/injection, schedule: Q01DX011 (sc), vehicle: steriod suspending solution
  T/C: 55 % of control
dose: 400.0 mg/kg/injection, schedule: Q01DX011 (sc), vehicle: steriod suspending solution
  T/C: 35 % of control

## N#C[C@@H]1C2C=CC(CC2)[C@H]1C#N
dose: 0.5 mg/kg/injection, schedule: Q01DX011 (ip), vehicle: carboxymethylcellulose (CMC)
  T/C: 97 % of control
dose: 1.0 mg/kg/injection, schedule: Q01DX011 (ip), vehicle: carboxymethylcellulose (CMC)
  T/C: 71 % of control
dose: 2.0 mg/kg/injection, schedule: Q01DX011 (ip), vehicle: carboxymethylcellulose (CMC)
  T/C: 83 % of control

## O=NN1CCN(N=O)CC1
dose: 8.3 mg/kg/injection, schedule: Q01DX011 (ip), vehicle: carboxymethylcellulose (CMC)
  T/C: 94 % of control
dose: 16.7 mg/kg/injection, schedule: Q01DX011 (ip), vehicle: carboxymethylcellulose (CMC)
  T/C: 120 % of control
dose: 23.5 mg/kg/injection, schedule: Q01DX011 (ip), vehicle: carboxymethylcellulose (CMC)
  T/C: 95 % of control
dose: 26.0 mg/kg/injection, schedule: Q01DX011 (ip), vehicle: carboxymethylcellulose (CMC)
  T/C: 85 % of control

## Cc1ccc(N=NN(C)C)cc1
dose: 25.0 mg/kg/injection, schedule: Q01DX011 (ip), vehicle: carboxymethylcellulose (CMC)
  T/C: 110 % of control
dose: 50.0 mg/kg/injection, schedule: Q01DX011 (ip), vehicle: carboxymethylcellulose (CMC)
  T/C: 90 % of control
[1]
  T/C: 28 % of control

## Nc1nc2n[nH]nc2c(=O)[nH]1
dose: 11.12 mg/kg/injection, schedule: Q01DX011 (ip), vehicle: carboxymethylcellulose (CMC)
  T/C: 158 % of control
dose: 11.8 mg/kg/injection, schedule: Q01DX011 (ip), vehicle: other
  T/C: 190 % of control
dose: 22.7 mg/kg/injection, schedule: Q01DX011 (ip), vehicle: other
  T/C: 189 % of control
dose: 45.5 mg/kg/injection, schedule: Q01DX011 (ip), vehicle: other
  T/C: 152 % of control
[4]
  T/C: 44 % of control
dose: 89.0 mg/kg/injection, schedule: Q01DX011 (ip), vehicle: other
  T/C: 123 % of control

## CCC(=O)O[C@H]1CC[C@H]2[C@@H]3CC[C@H]4CC(=O)[C@H](C)C[C@]4(C)[C@H]3CC[C@]12C
dose: 42.0 mg/kg/injection, schedule: Q01DX011 (sc), vehicle: steriod suspending solution
  T/C: 212 % of control
dose: 44.1 mg/kg/injection, schedule: Q01DX011 (sc), vehicle: steriod suspending solution
  T/C: 173 % of control
dose: 83.0 mg/kg/injection, schedule: Q01DX011 (sc), vehicle: steriod suspending solution
  T/C: 227 % of control
dose: 88.2 mg/kg/injection, schedule: Q01DX011 (sc), vehicle: steriod suspending solution
  T/C: 184 % of control
dose: 176.0 mg/kg/injection, schedule: Q01DX011 (sc), vehicle: steriod suspending solution
  T/C: 225 % of control
dose: 353.0 mg/kg/injection, schedule: Q01DX011 (sc), vehicle: steriod suspending solution
  T/C: 168 % of control and 213 % of control

## CCN(CC)c1ccc2cc3ccc(=[N+](CC)CC)cc-3oc2c1
[5]
  T/C: 102 % of control

## C[N+](C)(C)c1ncnc2nc[nH]c12
dose: 31.0 mg/kg/injection, schedule: Q01DX011 (ip), vehicle: carboxymethylcellulose (CMC)
  T/C: 106 % of control
dose: 62.0 mg/kg/injection, schedule: Q01DX011 (ip), vehicle: carboxymethylcellulose (CMC)
  T/C: 43 % of control
[6]
  T/C: 47 % of control

## CC1NC(=O)NC1CCCCCC(=O)O (stereo unspecified)
[4]
  T/C: 169 % of control
dose: 178.0 mg/kg/injection, schedule: Q01DX011 (ip), vehicle: carboxymethylcellulose (CMC)
  T/C: 119 % of control

## CC(=O)N(C)C
dose: 250.0 mg/kg/injection, schedule: Q01DX011 (ip), vehicle: saline
  T/C: 113 % of control

## O=C(N[C@H](CO)[C@H](O)c1ccc([N+](=O)[O-])cc1)C(Cl)Cl
dose: 47.0 mg/kg/injection, schedule: Q01DX011 (ip), vehicle: carboxymethylcellulose (CMC)
  T/C: 105 % of control
dose: 95.0 mg/kg/injection, schedule: Q01DX011 (ip), vehicle: carboxymethylcellulose (CMC)
  T/C: 98 % of control
dose: 191.0 mg/kg/injection, schedule: Q01DX011 (ip), vehicle: carboxymethylcellulose (CMC)
  T/C: 77 % of control
dose: 383.0 mg/kg/injection, schedule: Q01DX011 (ip), vehicle: carboxymethylcellulose (CMC)
  T/C: 108 % of control

## CN(C)c1ccc2nc3ccc(=[N+](C)C)cc-3sc2c1
[5]
  T/C: 278 % of control
dose: 10.0 mg/kg/injection, schedule: Q01DX011 (ip), vehicle: carboxymethylcellulose (CMC)
  T/C: 175 % of control
dose: 20.0 mg/kg/injection, schedule: Q01DX011 (ip), vehicle: carboxymethylcellulose (CMC)
  T/C: 171 % of control
dose: 40.0 mg/kg/injection, schedule: Q01DX011 (ip), vehicle: carboxymethylcellulose (CMC)
  T/C: 235 % of control

## O=c1cn[nH]c(=O)[nH]1
dose: 110.0 mg/kg/injection, schedule: Q01DX011 (ip), vehicle: carboxymethylcellulose (CMC)
  T/C: 72 % of control
dose: 220.0 mg/kg/injection, schedule: Q01DX011 (ip), vehicle: carboxymethylcellulose (CMC)
  T/C: 89 % of control
dose: 440.0 mg/kg/injection, schedule: Q01DX011 (ip), vehicle: carboxymethylcellulose (CMC)
  T/C: 96 % of control

## CCOC(N)=O
[2]
  T/C: 68 % of control
dose: 62.12 mg/kg/injection, schedule: Q01DX011 (ip), vehicle: carboxymethylcellulose (CMC)
  T/C: 110 % of control
dose: 62.5 mg/kg/injection, schedule: Q01DX011 (ip), vehicle: carboxymethylcellulose (CMC)
  T/C: 58 % of control
[3]
  T/C: 50 % of control
[6]
  T/C: 67 % of control
dose: 125.25 mg/kg/injection, schedule: Q01DX011 (ip), vehicle: carboxymethylcellulose (CMC)
  T/C: 95 % of control
dose: 150.0 mg/kg/injection, schedule: Q01DX011 (ip), vehicle: carboxymethylcellulose (CMC)
  T/C: 52 % of control and 36 % of control
dose: 250.0 mg/kg/injection, schedule: Q01DX011 (ip), vehicle: carboxymethylcellulose (CMC)
  T/C: 58 % of control and 66 % of control and 50 % of control
dose: 250.5 mg/kg/injection, schedule: Q01DX011 (ip), vehicle: carboxymethylcellulose (CMC)
  T/C: 115 % of control
dose: 300.0 mg/kg/injection, schedule: Q01DX011 (ip), vehicle: carboxymethylcellulose (CMC)
  T/C: 21 % of control
dose: 334.0 mg/kg/injection, schedule: Q01DX011 (ip), vehicle: carboxymethylcellulose (CMC)
  T/C: 56 % of control and 37 % of control
dose: 450.0 mg/kg/injection, schedule: Q01DX011 (ip), vehicle: carboxymethylcellulose (CMC)
  T/C: 20 % of control
dose: 600.0 mg/kg/injection, schedule: Q01DX011 (ip), vehicle: carboxymethylcellulose (CMC)
  T/C: 26 % of control
dose: 800.0 mg/kg/injection, schedule: Q01DX011 (ip), vehicle: carboxymethylcellulose (CMC)
  T/C: 36 % of control

## Cn1c(=O)c2[nH]cnc2n(C)c1=O
dose: 14.5 mg/kg/injection, schedule: Q01DX011 (ip), vehicle: carboxymethylcellulose (CMC)
  T/C: 97 % of control
dose: 29.0 mg/kg/injection, schedule: Q01DX011 (ip), vehicle: carboxymethylcellulose (CMC)
  T/C: 93 % of control
dose: 58.0 mg/kg/injection, schedule: Q01DX011 (ip), vehicle: carboxymethylcellulose (CMC)
  T/C: 82 % of control
dose: 116.0 mg/kg/injection, schedule: Q01DX011 (ip), vehicle: carboxymethylcellulose (CMC)
  T/C: 66 % of control

## C=C(C)C(=O)OCC1CO1 (stereo unspecified)
dose: 50.0 mg/kg/injection, schedule: Q01DX011 (ip), vehicle: water
  T/C: 99 % of control
dose: 100.0 mg/kg/injection, schedule: Q01DX011 (ip), vehicle: water
  T/C: 110 % of control
